This note sets out measurements from PMC6511944 (Journal of Medicinal Chemistry, 2019).

Entries after “also recorded” stand apart in the source; their conditions may differ.

For one assay, the system named is RAW 264.7 macrophages. The assay is described as follows: protection of RAW 264.7 macrophages from LPS-induced cytotoxicity. The conditions noted are these: LPS 100 μg/mL, MTS assay. (In general: Tetrazolium dyes change colour on reduction, which living cells bring about.)
For a further assay, the system named is NF-κB. Put plainly: RAW-Blue NF-κB reporter gene assay. The conditions noted are these: RAW-Blue macrophages, 0.2, 1 and 5 μM, LPS/IFNγ 10 ng/mL of each. The format is cell-based, murine.
A further assay relates to NO production. The assay is described as follows: nitric oxide. The settings on record: RAW 264.7 cells, 0.2, 1 and 5 μM, LPS/IFNγ 10 ng/mL of each. It is filed as cell-based, murine.
In assay [1] the test system is lipid peroxidation in RAW 264.7 cells. The assay is described as follows: lipid peroxidation by BODIPY 581/591 C11 staining and FACS in RAW 264.7 cells. The conditions noted are these: 5 μM, LPS/IFNγ 10 ng/mL of each, 24 h. It is filed as cell-based, murine.
The test system of another assay is iNOS. The format is cell-based, murine. The settings on record: 5 μM, RAW 264.7 macrophages activated by LPS and IFNγ (10 ng/mL of each).
The next assay deals with T1, 15-LOX-1 (Homo sapiens, UniProt P16050).
T1 sequence (P16050 1-662): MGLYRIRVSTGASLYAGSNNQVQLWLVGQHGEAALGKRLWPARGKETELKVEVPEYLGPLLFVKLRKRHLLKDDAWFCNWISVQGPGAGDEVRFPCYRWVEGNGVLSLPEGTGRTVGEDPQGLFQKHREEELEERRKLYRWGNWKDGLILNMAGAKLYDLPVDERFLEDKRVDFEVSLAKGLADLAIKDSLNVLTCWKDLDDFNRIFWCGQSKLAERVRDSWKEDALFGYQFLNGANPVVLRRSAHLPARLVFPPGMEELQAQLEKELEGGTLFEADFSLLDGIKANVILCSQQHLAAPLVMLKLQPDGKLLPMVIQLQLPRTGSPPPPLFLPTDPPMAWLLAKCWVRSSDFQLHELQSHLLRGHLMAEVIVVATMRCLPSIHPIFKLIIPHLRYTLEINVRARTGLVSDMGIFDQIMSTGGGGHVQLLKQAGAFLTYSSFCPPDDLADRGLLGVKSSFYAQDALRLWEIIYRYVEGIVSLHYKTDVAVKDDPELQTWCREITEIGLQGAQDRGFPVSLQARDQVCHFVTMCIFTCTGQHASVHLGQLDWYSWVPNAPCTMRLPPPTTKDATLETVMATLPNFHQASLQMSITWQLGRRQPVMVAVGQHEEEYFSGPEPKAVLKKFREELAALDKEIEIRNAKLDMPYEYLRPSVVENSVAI
The format is biochemical.

Regarding `CCOC(=O)c1[nH]c2cc(Cl)ccc2c1C(=O)C[C@@H](C)CCCC(C)C` [Eleftheriadis-14d], the “effect on viability of LPS-treated RAW 264.7 macrophages, in words” value (“effect on viability” for short) in the assay with RAW 264.7 macrophages is given as “comparably improved the viability”.
On to `CCOC(=O)c1[nH]c2cc(Cl)ccc2c1/C=C/C(=O)NCc1ccccc1OC` [Compound 9c, Ethyl (E)-6-Chloro-3-(3-((2-methoxybenzyl)amino)-3-oxoprop-1-en-1-yl)-1H-indole-2-carboxylate], for which the “inhibition of NF-κB transcriptional activation” value with NF-κB is “significant but not complete inhibition”. Also, the “inhibition of NO production (total nitrate/nitrite)” value in the assay with NO production is given as “dose-dependent inhibition”. For the same compound, the “effect on viability” value in the assay with RAW 264.7 macrophages is listed as “stronger, dose-dependent effects”. Further, the “effect on the boost of lipid peroxides” value in assay [1] (listed as 9c (i472)) is reported as “significantly attenuated; also recorded: clear reduction back to baseline levels”. The “downregulation of iNOS gene expression” value with iNOS is recorded as “approximately 50%”.
For `c1ccc2c(c1)SCc1c-2[nH]c2ccccc12` [PD-146176, reference compound], in assay [1], the “effect on the boost of lipid peroxides” value is “significantly attenuated”.
`CC(c1cc2ccccc2s1)N(O)C(N)=O` (stereo not drawn) [Zileuton]: the “effect on viability” value with RAW 264.7 macrophages was “comparably improved the viability”.
As to `CCCNC(=O)c1[nH]c2cc(Cl)ccc2c1CN(C)C` [Compound 13, 6-Chloro-3-((dimethylamino)methyl)-N-propyl-1H-indole-2-carboxamide], on 15-LOX-1, the “potency against 15-LOX-1, in words” value is on record as “complete loss in potency”.
